Experimental data reported in article PMC10376326, “Novel Acylselenourea Derivatives: Dual Molecules with Anticancer and Radical Scavenging Activity” (Antioxidants, 2023).

Columns and labels:
[1] = DPPH radical scavenging assay; type: biochemical; conditions: for DPPH Inhibitory%: acylselenourea analogs
Protocol: Different methods are available to quantify the antioxidant capacity of natural or novel molecules. Notable among these are the ABTS^•+ and DPPH^• methods, which measure the quenching efficiency in vitro for known concentrations of preformed radicals. In this work, the DPPH^• colorimetric assay was carried out. Measurements were recorded on a BioTeck PowerWave XS spectrophotometer (BioTeck Instruments, Winooski, VT, USA) and data were collected using KCJunior v.1.41. software (BioTeck Instruments, Winooski, VT, USA). Compounds with potent activity were selected to further determine their protective effect against ROS-induced cell death caused by H2O2.
DPPH colorimetric assay was performed to determine the in vitro radical scavenging activity of the acylselenourea derivatives. DPPH assay was performed as described by Svinyarov. For each acylselenourea, a stock solution of 1 mg/mL in dimethyl sulfoxide (DMSO) was made, and these solutions were used to prepare the different concentrations employed in the assay. The compounds were tested at two different concentrations (0.003 and 0.03 mg/mL). Intermediate solutions were prepared in methanol and a volume of 100 µL of each was added to each well of the plate. Then, 100 µL of DPPH^• (previously prepared at a concentration of 0.04 mg/mL in methanol and preserved in the dark) was added to the previous methanolic acylselenourea solutions. The discoloration of the purple radical to the yellow reduced form was followed at 517 nm at different time points (0, 5, 15, 30, 60, 90, and 120 min). Ascorbic acid and trolox were used as positive controls. All measurements were carried out in triplicate. Results are expressed as the percentage of the radicals scavenged, calculated using the following formula: (1) % DPPH radical scavenging=Acontrol - Asample/Acontrol × 100 where Acontrol refers to the absorbance of the negative control and Asample refers to the absorbance of the tested compounds. Results are expressed as percentage of DPPH radical scavenging ± SD.

[2] = system: HTB-54 (lung) cancer cell line; assay: MTT cell viability assay, HTB-54; type: cell-based, human; conditions: for activity at 10 µM / activity at 50 µM / IC50: Homo sapiens, HTB-54, 48 h; for activity at 10 µM: read-out: Cell growth %, HTB-54, 10 µM, 48 h, MTT; for activity at 50 µM: read-out: Cell growth %, HTB-54, 50 µM, 48 h, MTT; for IC50: read-out: IC50 HTB-54, Lung, MTT, 48 h; for SI: IC50 (BEAS-2B)/IC50 (HTB-54)
Protocol: (§1) Cell lines were purchased from the American Type Culture Collection (ATCC). Cell lines MDA-MB-231, HTB-54, DU-145, and BEAS-2B were cultured in RPMI 1640 medium (Gibco, Thermo Fisher Scientific, Gaithersburg, MD, USA) supplemented with 10% fetal bovine serum (FBS; Gibco), 100 units/mL penicillin, and […] streptomycin (Gibco). HT-29 cell line was grown in McCoy’s 5A (Gibco), 10% FBS, 100 units/mL penicillin, and 100 μg/mL streptomycin. Cells were maintained at 37 °C and 5% CO2. The culture medium was changed every three days.
(§2) The cell viability of each compound was measured by MTT colorimetric assay. Each compound was dissolved in DMSO at a concentration of 0.01 M. Each compound was tested at two different concentrations (10 and 50 µM) in MDA-MB-231 (breast), HTB-54 (lung), DU-145 (prostate), and HT-29 (colon) human cancer cell lines. Serial dilutions were prepared with supplemented culture medium. […] IC50 and selectivity indexes (SI) were determined.
(§3) Briefly, 1 × 10^4 tumor cells per well were grown in 96-well plates for 24 h. Then, these cells were incubated for 48 h with either DMSO (control) or a different concentration of each of the tested compounds. The cell viability was determined by adding 20 μL of MTT two hours and a half before the termination point. After this time, the culture medium was removed. The resulting formazan crystals were dissolved in 50 μL of DMSO, and the absorbance was measured at 570 nm. Results are expressed as % cell growth. The data were obtained from at least three independent experiments performed in quadruplicate.

[3] = system: MDA-MB-231 (breast) cancer cell line; assay: MTT cell viability assay, MDA-MB-231; type: cell-based, human; conditions: Homo sapiens, MDA-MB-231, 48 h; for activity at 10 µM: read-out: Cell growth %, MDA-MB-231, 10 µM, 48 h, MTT; for activity at 50 µM: read-out: Cell growth %, MDA-MB-231, 50 µM, 48 h, MTT
Protocol: as §1, §2, §3

[4] = system: DU-145 (prostate) cancer cell line; assay: MTT cell viability assay, DU-145; type: cell-based, human; conditions: Homo sapiens, DU-145, 48 h; for activity at 10 µM: read-out: Cell growth %, DU-145, 10 µM, 48 h, MTT; for activity at 50 µM: read-out: Cell growth %, DU-145, 50 µM, 48 h, MTT
Protocol: as §1, §2, §3

[5] = system: HT-29 (colon) cancer cell line; assay: MTT cell viability assay, HT-29; type: cell-based; conditions: Homo sapiens, HT-29, 48 h, read-out: Cell growth %; for activity at 10 µM: HT-29, 10 µM; for activity at 50 µM: HT-29, 50 µM
Protocol: as §1, §2, §3

[6] = system: non-malignant BEAS-2B lung cell line; assay: MTT cell viability assay, BEAS-2B; type: cell-based; conditions: Homo sapiens, normal lung, 48 h
Protocol: as §1, §2, §3

[7] = system: MDA-MB-231, HT-29, HTB-54 and DU-145 cancer cell lines; assay: MTT cell viability assay, statements over the panel of cancer cell lines; type: cell-based, human; conditions: in at least three of the four cancer cell lines tested
Protocol: as §1, §2, §3

[8] = system: DU-145 cells; assay: Protective effects against H2O2-induced oxidative stress in DU-145 cells (MTT); type: cell-based, human; conditions: increase-fold of cell survival
Protocol: Cells were treated with the selected compounds and then oxidative damage to DU-145 cells was induced using different concentrations of H2O2 (200, 250 and 300 µM), and cell viability was assessed by the MTT method. Briefly, 2.5 × 10^4 DU-145 cells per well were added in 96-well plates. After 24 h of incubation, DMSO, 1.I, 2.I, 5.I, 7.II, 10.II, and ascorbic acid were added to each well at two different concentrations (0.0015 mg/mL and 0.0003 mg/mL) and incubated for 1 h. After that, H2O2 was added at the concentrations of 200, 250, and 300 µM, and the cells were incubated for 12 h to induce cell damage. MTT assay was used to measure cell viability. For each treatment, the mean cell viability was calculated from three independent experiments. The DMSO-treated controls were assigned with a cell viability value of 100% (Vcontrol). The results are expressed as a cell growth inhibition % caused by H2O2 and the increased fold of cell survival, as follows: • Cells without compounds, only treated with H2O2: (2) % Cell growth inhibition=Acontrol - Asample/Acontrol × 100
• Cells treated with compounds and H2O2:
(3) % Cell growth inhibition=Asample (compound) - Asample (compound+H2O2)/Acontrol × 100
(4) Increase-fold of cell survival=% cell growth inhibition (H2O2)/% cell growth inhibition (compound+ H2O2)
The standard error of the mean (SEM) was calculated in at least three independent experiments performed in quadruplicates.

[9] = compound 0.0003 mg/mL, 200 µM H2O2, DU-145
[10] = compound 0.0003 mg/mL, 250 µM H2O2, DU-145
[11] = compound 0.0003 mg/mL, 300 µM H2O2, DU-145
[12] = compound 0.0015 mg/mL, 200 µM H2O2, DU-145
[13] = compound 0.0015 mg/mL, 250 µM H2O2, DU-145
[14] = compound 0.0015 mg/mL, 300 µM H2O2, DU-145

| SMILES | inhibition ([1]; 0.003 mg/mL, 0 min) | inhibition ([1]; 0.003 mg/mL, 5 min) | inhibition ([1]; 0.003 mg/mL, 15 min) | inhibition ([1]; 0.003 mg/mL, 30 min) | inhibition ([1]; 0.003 mg/mL, 60 min) | inhibition ([1]; 0.003 mg/mL, 90 min) | inhibition ([1]; 0.003 mg/mL, 120 min) | inhibition ([1]; 0.03 mg/mL, 0 min) | inhibition ([1]; 0.03 mg/mL, 5 min) | inhibition ([1]; 0.03 mg/mL, 15 min) | activity at 10 µM [2] | activity at 50 µM [2] | SI [2] | activity at 10 µM [3] | activity at 50 µM [3] | activity at 10 µM [4] | activity at 50 µM [4] | activity at 10 µM [5] | activity at 50 µM [5] | IC50 [6] | further results |
| --- | --- | --- | --- | --- | --- | --- | --- | --- | --- | --- | --- | --- | --- | --- | --- | --- | --- | --- | --- | --- | --- |
| CCCNC(=[Se])NC(=O)c1cccs1 [Compound 2.I, N-(propylcarbamoselenoyl)thiophene-2-carboxamide] | 0% | 4.9 ± 3.6% | 8.2 ± 3.3% | 11.4 ± 2.7% | 16 ± 3.4% | 17 ± 2.2% | 17.8 ± 2.2% | 2.5 ± 0.6% | 12.8 ± 1.8% | 36.2 ± 0.1% | 92.3 ± 6.2% | 71.8 ± 4.4% | 0.6 | 32.8 ± 7.2% | 15.2 ± 8.8% | 54.5 ± 8.4% | 50.2 ± 2% | 48.4 ± 13.8% | 32.7 ± 6.9% | 5.3 ± 0.6 µM | time to reach the highest DPPH inhibition ([1]; 0.03 mg/mL): 60 min; inhibition ([1]; 0.03 mg/mL, 30 min): 59 ± 3%; inhibition ([1]; 0.03 mg/mL, 60 min): 90.7 ± 5.7%; inhibition ([1]; 0.03 mg/mL, 90 min): 95.5 ± 0.2%; inhibition ([1]; 0.03 mg/mL, 120 min): 95.5 ± 0.3%; IC50 [2]: 8.6 ± 1.1 µM; cell growth [7]: below 55%; Increase-fold [8, 9]: 0.8 ± 0.2; Increase-fold [8, 10]: 0.9 ± 0.2; Increase-fold [8, 11]: 1.0 ± 0.3; Increase-fold [8, 12]: 2.9 ± 1.5; Increase-fold [8, 13]: 3.1 ± 1.3; Increase-fold [8, 14]: 2.9 ± 1.2 |
| C=CCNC(=[Se])NC(=O)c1cccnc1 [Compound 7.II, N-(allylcarbamoselenoyl)nicotinamide] | 3.6 ± 2.3% | 12 ± 2.2% | 16.8 ± 1.3% | 18.9 ± 1.3% | 20.3 ± 1.2% | 20.7 ± 1.3% | 20.7 ± 1.3% | 56.3 ± 6.2% | 90 ± 1.3% | 95.7 ± 0.4% | 21.4 ± 8.2% | 10.2 ± 5.8% | 0.5 | 33.9 ± 6.7% | 10.5 ± 7% | 50.6 ± 2.4% | 8.95 ± 4.9% | 110 ± 19.4% | 19 ± 3.6% | 6.3 ± 1.5 µM | time to reach the highest DPPH inhibition ([1]; 0.03 mg/mL): 5 min; DPPH Inhibitory% ([1]; 0.03 mg/mL, 90 min): 96.2 ± 0.2%; IC50 [2]: 12 ± 2.7 µM; cell growth [7]: below 55%; Increase-fold [8, 9]: 2.3 ± 1.2; Increase-fold [8, 10]: 1.6 ± 0.2; Increase-fold [8, 11]: 1.8 ± 0.4; Increase-fold [8, 12]: 1.5 ± 0.2; Increase-fold [8, 13]: 1.2 ± 0.3; Increase-fold [8, 14]: 1.4 ± 0.3 |
| C#CCNC(=[Se])NC(=O)c1ccc2c(c1)OCO2 [Compound 8.III, N-(prop-2-in-1-ylcarbamoselenoyl)benzo[d][1,3]dioxole-5-carboxamide] | 1.1 ± 2.3% | 2.4 ± 2.2% | 4.4 ± 2% | 6.2 ± 1.9% | 8.3 ± 1.8% | 9.2 ± 1.8% | 9.7 ± 1.8% | 6.4 ± 2.5% | 17.9 ± 0.9% | 32.8 ± 0.9% | 34.5 ± 9.1% | 31.6 ± 6.1% | >4.6 | 61.9 ± 13.5% | 19.1 ± 9.6% | 63 ± 4.8% | 12.3 ± 7.8% | 40.3 ± 8.3% | 18.1 ± 5.3% | > 100 µM | inhibition ([1]; 0.03 mg/mL, 30 min): 45.2 ± 2%; inhibition ([1]; 0.03 mg/mL, 60 min): 59.7 ± 3.8%; inhibition ([1]; 0.03 mg/mL, 120 min): 72.5 ± 8.1%; DPPH Inhibitory% ([1]; 0.03 mg/mL, 90 min): 62.4 ± 3.1%; IC50 [2]: 21.7 ± 4.1 µM |
| C=CCNC(=[Se])NC(=O)c1cccc(C(=O)NC(=[Se])NCC=C)c1 [Compound 10.II, N^1,N^3-bis(allylcarbamoselenoyl)isophthalamide] | 0.9 ± 1.8% | 6.7 ± 1.7% | 11.5 ± 1.5% | 14.7 ± 1.2% | 17.7 ± 1.1% | 19 ± 0.9% | 19.7 ± 0.9% | 31.6 ± 4.1% | 69.1 ± 0.1% | 86.3 ± 0.9% | 52.6 ± 10.5% | 43.5 ± 17.6% | 0.7 | 24.8 ± 6.1% | 21 ± 9.4% | 18.1 ± 2.7% | 18.8 ± 3.1% | 47.8 ± 8.7% | 46.4 ± 4.8% | 29.9 ± 5 µM | time to reach the highest DPPH inhibition ([1]; 0.03 mg/mL): 60 min; inhibition ([1]; 0.03 mg/mL, 30 min): 94.4 ± 0.7%; inhibition ([1]; 0.03 mg/mL, 60 min): 96.1 ± 0.1%; inhibition ([1]; 0.03 mg/mL, 90 min): 96 ± 0.2%; inhibition ([1]; 0.03 mg/mL, 120 min): 96 ± 0.3%; cell growth [7]: below 55%; Increase-fold [8, 9]: 0.8 ± 0.4; Increase-fold [8, 10]: 1.0 ± 0.3; Increase-fold [8, 11]: 1.0 ± 0.2; Increase-fold [8, 12]: 1.0 ± 0.6; Increase-fold [8, 13]: 1.1 ± 0.2; Increase-fold [8, 14]: 1.1 ± 0.2 |
